Experimental data: PubChem BioAssay AID330 (DTP/NCI, 2004)
Values joined by “and” are separate entries in the source; they are usually repeats but may differ in a detail not shown here. Identical values can stand only once. Inconclusive results and toxic doses are left out.

Tested on: P388 leukemia ip, CD2F1 mice, survival T/C
Experiment: NCI In Vivo Anticancer Drug Screen. Data for tumor model P388 Leukemia (intraperitoneal) in CD2F1 (CDF1) mice
Settings: endpoint: median survival time, higher = longer survival
In short: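 Mice carrying the transplanted tumor received test compound or vehicle. Survival was recorded in each group, and the value is the treated-group measurement divided by that of the vehicle-treated control group.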

[1] = dose: 50.0 mg/kg/injection, schedule: Q01DX005 (ip), vehicle: Klucel (hydroxypropylcellulose) (HPC)
[2] = dose: 100.0 mg/kg/injection, schedule: Q01DX005 (ip), vehicle: Klucel (hydroxypropylcellulose) (HPC)
[3] = dose: 200.0 mg/kg/injection, schedule: Q01DX005 (ip), vehicle: Klucel (hydroxypropylcellulose) (HPC)
[4] = dose: 100.0 mg/kg/injection, schedule: Q01DX001 (ip), vehicle: saline with Tween-80
[5] = dose: 200.0 mg/kg/injection, schedule: Q01DX001 (ip), vehicle: saline with Tween-80
[6] = dose: 400.0 mg/kg/injection, schedule: Q01DX001 (ip), vehicle: saline with Tween-80
[7] = dose: 100.0 mg/kg/injection, schedule: Q01DX001 (ip), vehicle: Klucel (hydroxypropylcellulose) (HPC)
[8] = dose: 12.5 mg/kg/injection, schedule: Q01DX009 (ip), vehicle: saline
[9] = dose: 25.0 mg/kg/injection, schedule: Q01DX009 (ip), vehicle: saline
[10] = dose: 50.0 mg/kg/injection, schedule: Q01DX009 (ip), vehicle: saline
[11] = dose: 50.0 mg/kg/injection, schedule: Q01DX009 (ip), vehicle: saline with Tween-80
[12] = dose: 200.0 mg/kg/injection, schedule: Q04DX003 (ip), vehicle: saline with Tween-80
[13] = dose: 100.0 mg/kg/injection, schedule: Q01DX009 (ip), vehicle: saline
[14] = dose: 200.0 mg/kg/injection, schedule: Q01DX009 (ip), vehicle: saline
[15] = dose: 240.0 mg/kg/injection, schedule: Q01DX005 (ip), vehicle: Klucel (hydroxypropylcellulose) (HPC)
[16] = dose: 50.0 mg/kg/injection, schedule: Q01DX005 (ip), vehicle: saline with Tween-80
[17] = dose: 100.0 mg/kg/injection, schedule: Q01DX005 (ip), vehicle: saline with Tween-80
[18] = dose: 25.0 mg/kg/injection, schedule: Q01DX005 (ip), vehicle: Klucel (hydroxypropylcellulose) (HPC)

O=Cc1cc(/C=N/Nc2ccc([N+](=O)[O-])cc2[N+](=O)[O-])nc2[nH]c(=O)ccc12 was tested, and the T/C (dose: 100.0 mg/kg/injection, schedule: Q04DX002 (ip), vehicle: saline with Tween-80) was 97 % of control, the T/C (dose: 200.0 mg/kg/injection, schedule: Q04DX002 (ip), vehicle: saline with Tween-80) was 104 % of control and the T/C (dose: 400.0 mg/kg/injection, schedule: Q04DX002 (ip), vehicle: saline with Tween-80) was 95 % of control.

For O=C(Nc1ccc2oc3ccc(Cl)cc3c(=O)c2c1)c1ccc(Cl)cc1Cl, the T/C [1] was 97 % of control, the T/C [2] was 96 % of control and the T/C [3] was 96 % of control.

CCCNC(C)(C)C(SSSC(c1ccc(C(F)(F)F)cc1)C(C)(C)NCCC)c1ccc(C(F)(F)F)cc1 (configuration not stated) was tested, and the T/C [4] was 100 % of control, the T/C [5] was 104 % of control and the T/C [6] was 100 % of control.

CN(C)CC(CN(C)C)C(=O)C(C)(C)C was tested, and the T/C (dose: 3.8 mg/kg/injection, schedule: Q01DX005 (ip), vehicle: saline) was 99 % of control, the T/C (dose: 7.5 mg/kg/injection, schedule: Q01DX005 (ip), vehicle: saline) was 96 % of control and the T/C (dose: 15.0 mg/kg/injection, schedule: Q01DX005 (ip), vehicle: saline) was 93 % of control. The T/C (dose: 30.0 mg/kg/injection, schedule: Q01DX005 (ip), vehicle: saline) was 105 % of control, the T/C (dose: 60.0 mg/kg/injection, schedule: Q01DX005 (ip), vehicle: saline) was 100 % of control and 104 % of control and the T/C (dose: 120.0 mg/kg/injection, schedule: Q01DX005 (ip), vehicle: saline) was 104 % of control and 110 % of control.

With COc1ccc2c(c1)C1(C)CC(OC1=O)C2=O (configuration not stated) the T/C (dose: 25.0 mg/kg/injection, schedule: Q01DX001 (ip), vehicle: Klucel (hydroxypropylcellulose) (HPC)) was 99 % of control, the T/C (dose: 50.0 mg/kg/injection, schedule: Q01DX001 (ip), vehicle: Klucel (hydroxypropylcellulose) (HPC)) was 100 % of control and the T/C [7] was 100 % of control.

In the case of CCCCCCCCCCCCCCCCOc1ccccc1CNc1cc(C(F)(F)F)ccc1Cl, the T/C (dose: 100.0 mg/kg/injection, schedule: Q04DX003 (ip), vehicle: other) is reported as 95 % of control, the T/C (dose: 200.0 mg/kg/injection, schedule: Q04DX003 (ip), vehicle: other) is reported as 100 % of control and the T/C (dose: 400.0 mg/kg/injection, schedule: Q04DX003 (ip), vehicle: other) is reported as 90 % of control.

For CNC(C#N)C(O)c1ccccc1 (configuration not stated), the T/C [8] was 92 % of control, the T/C [9] was 92 % of control and the T/C [10] was 93 % of control and 97 % of control.

With Nc1nc(N)c2nc(CNc3ccc(C(=O)NC(CC(=O)O)C(=O)O)cc3)cnc2n1 (configuration not stated) the T/C (dose: 12.5 mg/kg/injection, schedule: Q01DX009 (ip), vehicle: saline with Tween-80) was 150 % of control, the T/C [11] was 95 % of control and the T/C (dose: 66.0 mg/kg/injection, schedule: Q04DX003 (ip), vehicle: saline with Tween-80) was 112 % of control. The T/C [12] was 90 % of control.

With BrC1CCCCC(Br)C12OCCO2 (configuration not stated) the T/C (dose: 100.0 mg/kg/injection, schedule: Q04DX003 (ip), vehicle: saline) was 107 % of control, the T/C (dose: 200.0 mg/kg/injection, schedule: Q04DX003 (ip), vehicle: saline) was 104 % of control and the T/C (dose: 400.0 mg/kg/injection, schedule: Q04DX003 (ip), vehicle: saline) was 106 % of control.

For CCOC(=O)CS(=O)(=O)CCCS(=O)(=O)CC(=O)OCC, the T/C [10] was 97 % of control, the T/C [13] was 96 % of control and the T/C [14] was 94 % of control.

With CCN(CC)CCSc1nnc(-c2ccc3c(c2)OCO3)o1 the T/C (dose: 50.0 mg/kg/injection, schedule: Q04DX003 (ip), vehicle: water) was 99 % of control, the T/C (dose: 100.0 mg/kg/injection, schedule: Q04DX003 (ip), vehicle: water) was 99 % of control and the T/C (dose: 200.0 mg/kg/injection, schedule: Q04DX003 (ip), vehicle: water) was 101 % of control.

C1CC2OCC1O2 (configuration not stated) was tested, and the T/C [10] was 100 % of control, the T/C [13] was 106 % of control and the T/C [14] was 100 % of control.

With COc1ccc(/C=C/C(CCN(C)C)=N/NC(=S)Nc2ccc(Cl)cc2)cc1 the T/C [4] was 89 % of control, the T/C [5] was 90 % of control and the T/C [6] was 90 % of control.

In the case of CCOC(=O)C(N)C[S][Sn]([CH3])([CH3])[Cl] (configuration not stated), the T/C [11] is reported as 91 % of control.

With COCC(=O)C(C(C)=O)C(c1ccc2c(c1)OCO2)C(C(C)=O)C(=O)COC (configuration not stated) the T/C (dose: 100.0 mg/kg/injection, schedule: Q04DX003 (ip), vehicle: saline with Tween-80) was 90 % of control, the T/C [12] was 90 % of control and the T/C (dose: 400.0 mg/kg/injection, schedule: Q04DX003 (ip), vehicle: saline with Tween-80) was 95 % of control.

With CCOC(=O)C(=O)Nc1cccc(NC(=O)C(=O)OCC)n1 the T/C (dose: 60.0 mg/kg/injection, schedule: Q01DX005 (ip), vehicle: saline with Tween-80) was 100 % of control and the T/C (dose: 120.0 mg/kg/injection, schedule: Q01DX005 (ip), vehicle: saline with Tween-80) was 94 % of control.

COc1c2occc2c(OC)c2c(C)c(C(=O)OCCN3CCOCC3)oc12 was tested, and the T/C (dose: 60.0 mg/kg/injection, schedule: Q01DX005 (ip), vehicle: Klucel (hydroxypropylcellulose) (HPC)) was 96 % of control, the T/C (dose: 120.0 mg/kg/injection, schedule: Q01DX005 (ip), vehicle: Klucel (hydroxypropylcellulose) (HPC)) was 91 % of control and the T/C [15] was 91 % of control.

In the case of Cc1ccc(-c2cnc3c(n2)c(=O)[nH]c(=O)n3C)cc1, the T/C (dose: 100.0 mg/kg/injection, schedule: Q04DX003 (ip), vehicle: Klucel (hydroxypropylcellulose) (HPC)) is reported as 103 % of control and the T/C (dose: 200.0 mg/kg/injection, schedule: Q04DX003 (ip), vehicle: Klucel (hydroxypropylcellulose) (HPC)) is reported as 98 % of control.

In the case of Cc1ccc2[nH]c(=S)n(-c3ccc(S(=O)(=O)N4CCCCC4)cc3)c(=O)c2c1, the T/C [16] is reported as 89 % of control, the T/C [17] is reported as 91 % of control and the T/C (dose: 200.0 mg/kg/injection, schedule: Q01DX005 (ip), vehicle: saline with Tween-80) is reported as 90 % of control.

COc1ccc(C(=O)NC(c2ccccc2)c2cccs2)cc1 (configuration not stated) was tested, and the T/C [7] was 113 % of control, the T/C (dose: 200.0 mg/kg/injection, schedule: Q01DX001 (ip), vehicle: Klucel (hydroxypropylcellulose) (HPC)) was 104 % of control and the T/C (dose: 400.0 mg/kg/injection, schedule: Q01DX001 (ip), vehicle: Klucel (hydroxypropylcellulose) (HPC)) was 109 % of control.

In the case of CC(C)(C)NC1=C([N+](=O)[O-])CCCC1, the T/C [16] is reported as 93 % of control and the T/C [17] is reported as 93 % of control.

For CC1=CC(=C2C(=O)c3ccccc3C2=O)C=C(C)N1CC#CCN1CCCCC1, the T/C [1] was 108 % of control, the T/C [2] was 98 % of control and the T/C [3] was 88 % of control. The T/C [15] was 90 % of control.

CC(C)SC(=S)Nc1ccc(Cl)c(C(F)(F)F)c1 was tested, and the T/C [10] was 106 % of control, the T/C [13] was 105 % of control and the T/C [14] was 110 % of control.

With Cc1ccc(N=Cc2cccs2)cc1 the T/C (dose: 50.0 mg/kg/injection, schedule: Q01DX009 (ip), vehicle: Klucel (hydroxypropylcellulose) (HPC)) was 115 % of control and the T/C (dose: 100.0 mg/kg/injection, schedule: Q01DX009 (ip), vehicle: Klucel (hydroxypropylcellulose) (HPC)) was 115 % of control.

For COc1ccc2nc(C)c3c(c2c1)C(=O)N(CCCN1CCN(CCCN2C(=O)c4c(C)nc5ccc(OC)cc5c4C2=O)CC1)C3=O, the T/C (dose: 6.25 mg/kg/injection, schedule: Q01DX005 (ip), vehicle: Klucel (hydroxypropylcellulose) (HPC)) was 93 % of control, the T/C (dose: 12.5 mg/kg/injection, schedule: Q01DX005 (ip), vehicle: Klucel (hydroxypropylcellulose) (HPC)) was 90 % of control and the T/C [18] was 96 % of control.

With CC1CN1C(=O)c1cc(C(=O)N2CC2C)cc(C(=O)N2CC2C)c1 (configuration not stated) the T/C (dose: 6.25 mg/kg/injection, schedule: Q01DX009 (ip), vehicle: saline with Tween-80) was 113 % of control.

For Clc1cccc2nc(-c3ccccn3)n(CCc3ccncc3)c12, the T/C [18] was 95 % of control, the T/C [1] was 95 % of control and the T/C [2] was 95 % of control. The T/C [3] was 93 % of control.

CCOP(=O)(CC(=O)c1cc2ccccc2[nH]1)OCC was tested, and the T/C [8] was 100 % of control, the T/C [9] was 92 % of control and the T/C [10] was 106 % of control and 95 % of control. For the same molecule, the T/C [14] was 97 % of control.

In the case of CC(C)CC(NC(=O)OCC[P+](c1ccccc1)(c1ccccc1)c1ccccc1)C(=O)O (configuration not stated), the T/C (dose: 6.25 mg/kg/injection, schedule: Q04DX003 (ip), vehicle: saline) is reported as 102 % of control, the T/C (dose: 12.5 mg/kg/injection, schedule: Q04DX003 (ip), vehicle: saline) is reported as 105 % of control and the T/C (dose: 25.0 mg/kg/injection, schedule: Q04DX003 (ip), vehicle: saline) is reported as 112 % of control. The T/C (dose: 50.0 mg/kg/injection, schedule: Q04DX003 (ip), vehicle: saline) was 121 % of control.
